The nature of the data set: HILIC, Waters ACQUITY UPLC BEH Amide, 100 × 2.1 mm, 1.7 µm; A: water + 0.125% formic acid + 10 mM ammonium formate; B: 5% water + 95% acetonitrile + 0.125% formic acid + 10 mM ammonium formate; gradient (min/%B) 0/100 2/100 7.7/70 9.5/40 10.25/30 12.75/100 17/100. The following applies: stereoisomer not certain.
Turning to `CCOC(=O)C(CCc1ccccc1)NC1CCc2ccccc2N(CC(=O)O)C1=O` (centres undefined) [Benazepril], the LC retention time was 1.33 min.
Consider `COC(=O)C1=C(C)NC(C)=C(C(=O)OC2CCCN(Cc3ccccc3)C2)C1c1cccc([N+](=O)[O-])c1` (centres undefined) [Benidipine], for which the LC retention time stood at 1.46 min.
Turning to `CC(COc1ccccc1Cc1ccccc1)N1CCCCC1` (centres undefined) [Benproperine], the LC retention time came to 1.99 min.
With `NC(=O)c1ccccc1` [Benzamide] the figure was 1.27 min; with `c1ccc2scnc2c1` [Benzothiazole], 1.11 min; with `CN1C2CCC1C(C(=O)O)C(OC(=O)c1ccccc1)C2` (centres undefined) [Benzoylecgonine], 3.63 min.
Regarding `CC(Cc1ccccc1)N(C)Cc1ccccc1` (centres undefined) [Benzphetamine], the LC retention time amounted to 2.03 min.
As to `CC(=O)OCc1ccccc1` [Benzylacetate], the LC retention time is 8.71 min.
For `CC(C)CC(NC(=O)C(O)C(N)Cc1ccccc1)C(=O)O` (centres undefined) [Bestatin], the LC retention time is 5.98 min.
With `C[N+](C)(C)CC(=O)[O-]` [Betaine], the LC retention time came to 7.24 min.
As for `CC(C)NCC(O)COc1ccc(CCOCC2CC2)cc1` (centres undefined) [Betaxolol], the figure is 3.05 min; as for `CC(O)(CS(=O)(=O)c1ccc(F)cc1)C(=O)Nc1ccc(C#N)c(C(F)(F)F)c1` (centres undefined) [Bicalutamide], 0.99 min.
Take `CNCCCCOc1ccccc1Cc1ccccc1` [Bifemelane]: the LC retention time was 2.46 min.
Turning to `c1ccc(-c2ccc(C(c3ccccc3)n3ccnc3)cc2)cc1` (centres undefined) [Bifonazole], the LC retention time is 1.19 min.
Consider `O=C1CC2(CCCC2)CC(=O)N1CCNCC1COc2ccccc2O1` (centres undefined) [Binospirone], for which the LC retention time came to 1.8 min.
For the compound `O=C(O)CCCCC1SCC2NC(=O)NC21` (centres undefined) [Biotin], the LC retention time turned out to be 2.85 min.
In the case of `CC(C)NCC(O)COc1ccc(COCCOC(C)C)cc1` (centres undefined) [Bisoprolol], the LC retention time amounted to 3.47 min.
For the compound `NC(=O)NC(N)=O` [Biuret], the LC retention time is 2.73 min.
Take `O=C1CN=C(c2ccccn2)c2cc(Br)ccc2N1` [Bromazepam]: the LC retention time turned out to be 1.3 min.
As to `COc1cc2c(cc1OC)C13CCN4CC5=CCOC6CC(=O)N2C1C6C5CC43` (centres undefined) [Brucine], the LC retention time stood at 4.57 min.
With `COc1cc(OC)c(C(=O)CCCN2CCCC2)c(OC)c1` [Buflomedil] the figure was 2.34 min; with `CC(NC(C)(C)C)C(=O)c1cccc(Cl)c1` (centres undefined) [Bupropion], 2.22 min; with `CCCC(=O)O` [Butanoic acid], 10.2 min.
For `CCCC(=O)NCC(=O)O` [Butyrylglycine], the LC retention time turned out to be 3.73 min.
On to `NCCCCCN` [Cadaverine], for which the LC retention time was 8.99 min.
As for `Cn1c(=O)c2c(ncn2C)n(C)c1=O` [Caffeine], the figure is 1.21 min; as for `c1ccc2c(-c3nccs3)c[nH]c2c1` [Camalexin], 1.05 min.
With `NC(N)=NOCCC(N)C(=O)O` (centres undefined) [Canavanine] the figure was 9.42 min; with `COc1cc(CNC(=O)CCCCC=CC(C)C)ccc1O` [Capsaicin], 1 min; with `NC(=O)N1c2ccccc2C=Cc2ccccc21` [Carbamazepine], 1.21 min.
On to `NC(CSCC(=O)O)C(=O)O` (centres undefined) [Carbocysteine], for which the LC retention time was determined as 9.04 min.
Take `CC(Cc1ccc(C(C)C(=O)O)cc1)C(=O)O` (centres undefined) [Carboxyibuprofen]: the LC retention time is 1.11 min.
As for `C[N+](C)(C)CC(O)CC(=O)[O-]` (centres undefined) [Carnitine], the figure is 7.83 min; as for `NCCC(=O)NC(Cc1cnc[nH]1)C(=O)O` (centres undefined) [Carnosine], 9.54 min; as for `COc1ccccc1OCCNCC(O)COc1cccc2[nH]c3ccccc3c12` (centres undefined) [Carvedilol], 3.17 min.
As for `NC(C(=O)NC1C(=O)N2C(C(=O)O)=C(Cl)CSC12)c1ccccc1` (centres undefined) [Cefaclor], the LC retention time is 5.61 min.
In the case of `NC(C(=O)NC1C(=O)N2C(C(=O)O)=C(CSc3cn[nH]n3)CSC12)c1ccc(O)cc1` (centres undefined) [Cefatrizine], the LC retention time stood at 7.98 min.
As for `C=CC1=C(C(=O)O)N2C(=O)C(NC(=O)C(=NO)c3csc(N)n3)C2SC1` (centres undefined) [Cefdinir], the figure is 6.94 min.
`C=CC1=C(C(=O)O)N2C(=O)C(NC(=O)C(=NOCC(=O)O)c3csc(N)n3)C2SC1` (centres undefined) [Cefixime]: the LC retention time came out at 7.79 min.
As for `COCc1c(C(C)C)nc(C(C)C)c(C=CC(O)CC(O)CC(=O)O)c1-c1ccc(F)cc1` (centres undefined) [Cerivastatin], the figure is 1.18 min; as for `NCC1CCC(C(=O)Oc2ccc(CCC(=O)O)cc2)CC1` (centres undefined) [Cetraxate], 5.29 min.
For `CN=C1CN(O)C(c2ccccc2)=c2cc(Cl)ccc2=N1` [Chlordiazepoxide], the LC retention time was 1.35 min.
With `O=C(C=Cc1ccc(O)c(O)c1)OC1CC(O)(C(=O)O)CC(O)C1O` (centres undefined) [Chlorogenic acid] the figure was 6.68 min; with `CN(C)CCC(c1ccc(Cl)cc1)c1ccccn1` (centres undefined) [Chlorpheniramine], 2.54 min; with `C[N+](C)(C)CCO` [Choline [M]+], 5.18 min.
For the compound `CC1(C)CC1C(=O)NC(=CCCCCSCC(N)C(=O)O)C(=O)O` (centres undefined) [Cilastatin], the LC retention time worked out at 7.63 min.
For the compound `CN(C)CCCSc1ccccc1NC(=O)C=Cc1ccccc1` [Cinanserin], the LC retention time came to 2.61 min.
With `O=CC=Cc1ccccc1` [Cinnamaldehyde], the LC retention time was found to be 9.18 min.
Take `COc1cc(N)c(Cl)cc1C(=O)NC1CCN(CCCOc2ccc(F)cc2)CC1OC` (centres undefined) [Cisapride]: the LC retention time amounted to 2.28 min.
Turning to `NC(=O)NCCCC(N)C(=O)O` (centres undefined) [Citrulline], the LC retention time came to 8.74 min.
As for `Nc1nc(Cl)nc2c1ncn2C1CC(O)C(CO)O1` (centres undefined) [Cladribine], the LC retention time came out at 1.95 min.
Regarding `CCC1OC(=O)C(C)C(OC2CC(C)(OC)C(O)C(C)O2)C(C)C(OC2OC(C)CC(N(C)C)C2O)C(C)(OC)CC(C)C(=O)C(C)C(O)C1(C)O` (centres undefined) [Clarithromycin], the LC retention time came out at 3 min.
Regarding `CN1C(=O)CC(=O)N(c2ccccc2)c2cc(Cl)ccc21` [Clobazam], the LC retention time was determined as 1.1 min.
Turning to `NC(=NCc1ccc(Cl)cc1)SCCCc1cnc[nH]1` [Clobenpropit], the LC retention time was found to be 6.13 min.
Turning to `CC(C)N=c1cc2n(-c3ccc(Cl)cc3)c3ccccc3nc-2cc1Nc1ccc(Cl)cc1` [Clofazimine], the LC retention time amounted to 1.78 min.
For the compound `CN(C)CCCN1c2ccccc2CCc2ccc(Cl)cc21` [Clomipramine], the LC retention time stood at 2.31 min.
In the case of `Clc1cccc(Cl)c1NC1=NCCN1` [Clonidine], the LC retention time came to 2.85 min.
`CCOC(=O)C1C(OC(=O)c2ccccc2)CC2CCC1N2C` (centres undefined) [Cocaethylene]: the LC retention time worked out at 2.12 min.
`COC(=O)C1C(OC(=O)c2ccccc2)CC2CCC1N2C` (centres undefined) [Cocaine]: the LC retention time stood at 2.2 min.
In the case of `COc1cc(C=CC=O)ccc1O` [Coniferylaldehyde], the LC retention time turned out to be 1.14 min.
With `Nc1ncnc2c1ncn2C1OC(CO)CC1O` (centres undefined) [Cordycepin], the LC retention time amounted to 3.54 min.
On to `CC12CCC(=O)C=C1CCC1C2C(O)CC2(C)C(C(=O)CO)CCC12` (centres undefined) [Corticosterone], for which the LC retention time worked out at 1.25 min.
As to `CC12CCC(=O)C=C1CCC1C2C(=O)CC2(C)C1CCC2(O)C(=O)CO` (centres undefined) [Cortisone], the LC retention time came out at 1.29 min.
As to `CC12CCC(=O)C=C1CCC1C2CCC2(C)C1CCC2(O)C(=O)CO` (centres undefined) [Cortodoxone], the LC retention time was found to be 1.15 min.
`COc1cc2c(cc1OC)C1C(C)c3ccc(OC)c(OC)c3CN1CC2` (centres undefined) [Corydaline]: the LC retention time is 1.52 min.
For `CN1C(=O)CCC1c1cccnc1` (centres undefined) [Cotinine], the LC retention time was 1.49 min.
As to `O=c1ccc2ccccc2o1` [Coumarin], the LC retention time amounted to 1.08 min.
As for `CN(CC(=O)O)C(=N)N` [Creatine], the LC retention time came to 8.15 min.
As for `CN1CC(=O)NC1=N` [Creatinine], the LC retention time came out at 4.93 min.
As for `CC=CC(=O)N(CC)c1ccccc1C` [Crotamiton], the LC retention time was 0.97 min.
In the case of `CC(C)CC1NC(=O)C2CCCN2C1=O` (centres undefined) [Cyclo(Leu-Pro)], the LC retention time is 1.29 min.
As for `NC1CCCCC1` [Cyclohexanamine], the LC retention time was found to be 5.1 min.
`CN1CCC(=C2c3ccccc3C=Cc3ccccc32)CC1` [Cyproheptadine]: the LC retention time turned out to be 2.31 min.
As to `NC(CCSCC(N)C(=O)O)C(=O)O` (centres undefined) [Cystathionine], the LC retention time is 9.91 min.
With `NC(CS(=O)(=O)O)C(=O)O` (centres undefined) [Cysteic acid], the LC retention time came out at 8.92 min.
Turning to `NC(CS)C(=O)O` (centres undefined) [Cysteine], the LC retention time worked out at 5.31 min.
Take `NC(CSSCC(N)C(=O)O)C(=O)O` (centres undefined) [Cystine]: the LC retention time was determined as 9.97 min.
As for `Nc1ccn(C2OC(COP(=O)(O)O)C(O)C2O)c(=O)n1` (centres undefined) [Cytidine-5'-monophosphate], the LC retention time is 9.48 min.
With `Nc1ccnc(=O)[nH]1` [Cytosine] the figure was 5.9 min; with `O=c1c(-c2ccc(O)cc2)coc2cc(O)ccc12` [Daidzein], 1.39 min; with `CCCCCCCCCC=O` [Decanal], 2.17 min.
On to `CC(CCC(=O)O)C1CCC2C3C(=O)CC4CC(=O)CCC4(C)C3CC(=O)C12C` (centres undefined) [Dehydrocholic acid], for which the LC retention time is 1.16 min.
With `CC12CCC3C(CC=C4CC(O)CCC43C)C1CCC2=O` (centres undefined) [Dehydroepiandrosterone] the figure was 1.03 min; with `O=c1ccn(C2CC(O)C(COP(=O)(O)O)O2)c(=O)[nH]1` (centres undefined) [Deoxyuridine monophosphate], 8.25 min.

Source of the values: the RepoRT retention time repository.
